Entries after “also recorded” stand apart in the source; their conditions may differ.
Legend:
[1] = test system: PBMC from SIV-infected rhesus macaques; format: cell-based, rhesus macaque; details: macaques R395, R397, R416, R422
[2] = test system: PBMC from FIV-vaccinated cats; test: IFNγ ELISpot, PBMC from FIV-vaccinated cats (prototype vaccine, or prime plus MAP boosts); format: cell-based, cat; details: for IFNγ (SFU): prime 1x IWV, post-second MAP boost, peptide or MAP as culture stimulant, >50 positive
From the text: (§1) Peptide Fp4-3 (left), peptide Fp14-1 (middle) and MAP1 [right] were culture stimulants. IL2 and IFNγ ELISpot results of >50 spot forming units (SFU/10^6 PBMC) and CFSE-proliferation of >2 are considered positive (bolded). The prime-boost vaccination induced IL2 responses in 3 of 4 cats and IFNγ response in one. Larger responses were induced by MAP1 than individual peptides in culture.

[3] = test system: CD4+ T cells from FIV-vaccinated cats; test: CFSE-proliferation, CD4+ T cells from FIV-vaccinated cats; format: cell-based, cat; details: for Proliferation (CFSE^low) CD4^+ T cells: prime 1x IWV, post-second MAP boost, peptide or MAP as culture stimulant, >2 positive
From the text: (§2) FIGS. 32A and 32B. T-cell proliferation responses to FIV p24 peptide pools by vaccinated cats. […] (FIG. 32A) and CD3^+CD8^+ (FIG. 32B) T-cell proliferation responses are shown for prototype FIV-vaccinated cats. The FIV vaccinated cats were semi-inbred cats with blue, dark red, and pink/green bars from different MHC-lineage colonies. The semi-inbred cats with light pink and green bars are from the same […] lineage. Pools Fp9 and Fp14 are recognized by both HIV^+ subjects and vaccinated cats (i.e., evolutionarily conserved [EC] epitopes) but pools Fp3 and Fp4 are not recognized by HIV^+ subjects (i.e., non-EC epitopes). The IFNγ responses of these cats were either low or below the cut-off threshold of 50 SFU/1×10^6 PBMC. The peptides that stimulated the most proliferation responses: non-EC peptide Fp4-3 in pool Fp4 and EC peptide Fp14-1 in pool Fp14 were used in in vivo study below (FIG. 34).
(§3) FIGS. 33A-33C. IFNγ and T-cell proliferation responses to Fp9 and Fp14 by the FIV-vaccinated cats and FIV-infected cats. The T cells or PBMC from 32 FIV-vaccinated cats were stimulated with either Fp9 or Fp14 and evaluated for proliferation (FIG. 33A) or IFNγ (FIG. 33B) responses. In addition, the PBMC from 32 FIV-infected cats at 22-52 weeks of infection and 20 HIV-1 p24-immunized cats were tested for IFNγ responses to the same peptide pools (FIG. 33B). Three types of laboratory cats were used in these studies: semi-inbred line 1 (Semi-Inbred 1), semi-inbred line 2 (Semi-Inbred 2), and outbred cats (Outbred) from laboratory cat vendors. Semi-inbred cats have been inbred for 3-5 generations with defined feline leukocyte antigen (FLA) alleles and are divided into two FLA haplotype lines. FIV vaccine consisted of prototype dual-subtype FIV vaccine (Coleman et al. 2014). The insert in each panel defines the numbers of each type of cats as well as vaccination (Vac.) or infection (Infect.) status. The number of cat responders used varies between the analyses performed for the individual Fp14 peptides (FIG. 33C, left for IFNγ and right for proliferation).
as §1

[4] = test system: FIV infection of naïve cat PBMC; test: In vitro FIV enhancing/inhibitory (E/I) assay in PBMC from naïve SPF cats (RT titer); format: cell-based; details: PBMC from naïve cats
Procedure: FIG. 35. FIV-enhancing versus inhibitory epitopes on peptides and MAPs used in pilot MAP Study. […] Abbreviation: MAP1 plus MAP2 mix (MAP1+2).
FIG. 36A and 36B. FIV/HIV-1 enhancing versus inhibitory epitopes. […] Four epitope peptides were tested in an in vivo efficacy study with prototype vaccine prime and MAP boosts against pathogenic FIV challenge (see MAP section).
To test the possibility that Fp4-3 peptide may be enhancing FIV infection, we performed an in vitro FIV enhancing/inhibitory analysis with all MAP peptides and immunogens. […]. Since MAP2 consisted of peptides FRT3-3 and FRT3-4 with a natural overlap (FIG. 34), such overlap may have blocked the enhancing activity of peptide FRT3-3 while allowing the inhibitory activity of peptide FRT3-4. […] Moreover, none of the MAP vaccinated cats had early detection or enhancement in viral load compared to the control cats. Perhaps, the strong immunity generated by the MAP2 has blocked the enhancing activity of the MAP1 when boosted together (Group 1, Table 3). To test this possibility, in vitro study is currently undergoing to evaluate whether MAP2 can block FIV enhancing activity of MAP1. Furthermore, more cats will be vaccinated with MAP 1b and MAP2 to determine the levels of cytotoxins generated to peptides Fp14-1, FRT3-3 and FRT3-4. Since these peptides have induced CTL-associated cytotoxin expression in T cells from HIV^+ subjects (FIGS. 31A-31B; FIG. 5 in (Sanou et al. 2013)), these EC peptides may also mediate their in vivo effects by inducing anti-FIV specific CTL activity.
However, only peptide Fp4-3 correlated with the in vitro enhancement induced by MAP1. Since the in vitro E/I assay uses PBMC from naïve specific pathogen free (SPF) cats, it is unlikely that the in vitro stimulation of anti-FIV CTLs occurred in the culture and eliminated the infected cells. More likely, these enhancing or inhibitory peptides induced cytokines (enhancement: IFNγ, TNFα, GM-CSF; inhibition: IFNα, IL10), chemokines (inhibition: MIP1α, MIP1β, SDF-1, RANTES), or cellular restriction factors (inhibition: Trim5α, APOBEC3g) that either enhanced or inhibited FIV/HIV-1 infection. […] IFNγ is produced during inflammatory responses to HIV-1 infection (Ipp and Zemlin 2013). Thus, high levels of antiviral cellular immune responses are needed while minimizing both non-specific and viral-specific activation of CD4^+ T cells which can enhance viral replication (Lane 2010). Removal of the enhancing epitopes on FIV and HIV-1 immunogens will be critical to produce an effective HIV-1 vaccine. To accomplish this goal, we will design a vaccine based on antiviral epitopes directed at inducing viral-specific CD4^+ CTLs, CD8^+ CTLs and polyfunctional T cells, and identifying viral enhancing epitopes to remove from vaccine candidates.

[5] = test system: CD3+CD8+ T cells from FIV-vaccinated cats; test: CFSE-proliferation, CD8+ T cells from FIV-vaccinated cats; format: cell-based, cat; details: prime 1x IWV, post-second MAP boost, peptide or MAP as culture stimulant, >2 positive
From the text: as §2, §3, §1

[6] = test system: PBMC from FIV-vaccinated cats; test: IL2 ELISpot, PBMC from FIV-vaccinated cats (prototype vaccine, or prime plus MAP boosts); format: cell-based, cat; details: for IL2 (SFU): prime 1x IWV, post-second MAP boost, peptide or MAP as culture stimulant, >50 positive
From the text: as §1

[7] = cat DVB, boost-1 MAP1b, boost-2 MAP1b
[8] = cat DVD, boost-1 MAP1, boost-2 MAP1
[9] = cat QVQ, boost-1 MAP1b, boost-2 MAP1b
[10] = cat QVW, boost-1 MAP1, boost-2 MAP1

KWRKLVDFRELNKR [H3-4]
reactivity of PBMC from individual infected macaques [1]: reacted

PTDLATLILAAPGSARVKRDQEQNTAEVKLYLK [MAP1, palmitated multiple antigenic peptide: Fp4-3/furin-sensitive-linker/Fp14-1]
IFNγ (SFU) [2, 7]: [0] SFU/10^6 PBMC
IFNγ (SFU) [2, 8]: [206] SFU/10^6 PBMC
IFNγ (SFU) [2, 9]: [43] SFU/10^6 PBMC
IFNγ (SFU) [2, 10]: [0] SFU/10^6 PBMC
Proliferation (CFSE^low) CD4^+ T cells [3, 7]: [1]
Proliferation (CFSE^low) CD4^+ T cells [3, 8]: [2]
Proliferation (CFSE^low) CD4^+ T cells [3, 9]: [7]
Proliferation (CFSE^low) CD4^+ T cells [3, 10]: [7]
effect on in vitro FIV infection [4]: significant enhancement
Proliferation (CFSE^low) CD8^+ T cells [5, 7]: [10]
Proliferation (CFSE^low) CD8^+ T cells [5, 8]: [9]
Proliferation (CFSE^low) CD8^+ T cells [5, 9]: [7]
Proliferation (CFSE^low) CD8^+ T cells [5, 10]: [6]
IL2 (SFU) [6, 7]: [76] SFU/10^6 PBMC
IL2 (SFU) [6, 8]: [296] SFU/10^6 PBMC
IL2 (SFU) [6, 9]: [165] SFU/10^6 PBMC
IL2 (SFU) [6, 10]: [9] SFU/10^6 PBMC

PTDMATLIMAAPGCA [Fp4-3]
IFNγ responses in PBMC from FIV-vaccinated cats (in words) [2]: induced predominantly; also recorded: high levels
IFNγ (SFU) [2, 7]: 0/0 SFU/10^6 PBMC
IFNγ (SFU) [2, 8]: 132 SFU/10^6 PBMC
IFNγ (SFU) [2, 9]: 0/0 SFU/10^6 PBMC
IFNγ (SFU) [2, 10]: 21 SFU/10^6 PBMC
CD4+ T-cell proliferation in FIV-vaccinated cats (in words) [3]: induced predominantly
Proliferation (CFSE^low) CD4^+ T cells [3, 7]: 0
Proliferation (CFSE^low) CD4^+ T cells [3, 8]: 3
Proliferation (CFSE^low) CD4^+ T cells [3, 9]: 1/1
Proliferation (CFSE^low) CD4^+ T cells [3, 10]: 0
effect on in vitro FIV infection [4]: significant enhancement; also recorded: significantly enhanced
Proliferation (CFSE^low) CD8^+ T cells [5, 7]: 0
Proliferation (CFSE^low) CD8^+ T cells [5, 8]: 6
Proliferation (CFSE^low) CD8^+ T cells [5, 9]: 0
Proliferation (CFSE^low) CD8^+ T cells [5, 10]: 0
IL2 responses in PBMC from FIV-vaccinated cats (in words) [6]: induced predominantly
IL2 (SFU) [6, 7]: 0 SFU/10^6 PBMC
IL2 (SFU) [6, 8]: 95 SFU/10^6 PBMC
IL2 (SFU) [6, 9]: 0 SFU/10^6 PBMC
IL2 (SFU) [6, 10]: 0/0 SFU/10^6 PBMC

WRKLVDFRE [shorter peptide of HRT3]
reactivity of PBMC from individual infected macaques [1]: reacted

From US10905757B2, “Cross-reactive T cell epitopes of HIV, SIV, and FIV for vaccines in humans and cats” (priority 2012, dated 2021)
